Laboratory results published in the C3SDB collision cross section collection.
“And” between values parts separate entries of the source, which are not always exact repeats. Equal entries are not always repeated.

Settings: instrument: DT, stepped-field

Structure (SMILES) | collision cross section (N2) ([M+H]+) | also measured
OCC1OC(OC2C(CO)OC(OC3C(CO)OC(OC4C(CO)OC(OC5C(CO)OC(OC6C(CO)OC(OC7C(CO)OC(OC8C(CO)OC(O)C(O)C8O)C(O)C7O)C(O)C6O)C(O)C5O)C(O)C4O)C(O)C3O)C(O)C2O)C(O)C(O)C1O (stereo not drawn) [(Hex)8] |  | collision cross section (N2) ([M+H-H2O]+): 333.8 Å²; collision cross section (N2) ([M+Na]+): 320.9 Å² and 338.8 Å²
O=CC(OC1OC(CO)C(OC2OC(CO)C(O)C(O)C2O)C(OC2OC(CO)C(O)C(O)C2O)C1OC1OC(CO)C(O)C(O)C1O)C(OC1OC(CO)C(O)C(O)C1O)C(OC1OC(CO)C(O)C(O)C1O)C(COC1OC(CO)C(O)C(O)C1O)OC1OC(CO)C(O)C(O)C1O (stereo not drawn) [(Hex)9] |  | collision cross section (N2) ([M+H-H2O]+): 356.2 Å²; collision cross section (N2) ([M+Na]+): 340.5 Å² and 351.9 Å²
OCC1OC(OC2C(CO)OC(OC3C(CO)OC(OC4C(CO)OC(OC5C(CO)OC(OC6C(CO)OC(OC7C(CO)OC(OC8C(CO)OC(OC9C(CO)OC(OC%10C(CO)OC(OC%11C(CO)OC(OC%12C(CO)OC(O)C(O)C%12O)C(O)C%11O)C(O)C%10O)C(O)C9O)C(O)C8O)C(O)C7O)C(O)C6O)C(O)C5O)C(O)C4O)C(O)C3O)C(O)C2O)C(O)C(O)C1O (stereo not drawn) [(Hex)12] |  | collision cross section (N2) ([M+H-H2O]+): 400.3 Å² and 422.9 Å²; collision cross section (N2) ([M+Na-H2O]+): 390.6 Å² and 410 Å²
C[C@H](N)C(=O)N[C@@H](Cc1ccccc1)C(=O)N[C@@H](CC(=O)O)C(=O)N[C@@H](CCC(=O)O)C(=O)N[C@@H](CCCCN)C(=O)O [AFDEK] | 238.3 Å² | 
CSCC[C@H](NC(=O)[C@H](C)N)C(=O)NCC(=O)N[C@@H](Cc1ccc(O)cc1)C(=O)N[C@@H](CCCNC(=N)N)C(=O)O [AMGYR] | 245 Å² | 
OC[C@H]1O[C@@H]2O[C@H]3[C@H](O)[C@@H](O)[C@@H](O[C@H]4[C@H](O)[C@@H](O)[C@@H](O[C@H]5[C@H](O)[C@@H](O)[C@@H](O[C@H]6[C@H](O)[C@@H](O)[C@@H](O[C@H]7[C@H](O)[C@@H](O)[C@@H](O[C@H]8[C@H](O)[C@@H](O)[C@@H](O[C@H]1[C@H](O)[C@H]2O)O[C@@H]8CO)O[C@@H]7CO)O[C@@H]6CO)O[C@@H]5CO)O[C@@H]4CO)O[C@@H]3CO [Beta-Cyclodextrin] | 301.3 Å² and 319.6 Å² | collision cross section (N2) ([M+K]+): 320.3 Å²; collision cross section (N2) ([M+Na]+): 319.7 Å²
CCC(C)[C@H](NC(=O)[C@H](CO)NC(=O)[C@H](C)NC(=O)[C@@H](N)CS)C(=O)N[C@@H](CCC(N)=O)C(=O)N[C@@H](CCCCN)C(=O)O (stereo partly drawn) [CASIQK] | 252.8 Å² | 
CC(C)C[C@H](NC(=O)[C@H](Cc1c[nH]cn1)NC(=O)[C@@H](N)CC(=O)O)C(=O)N[C@H](C(=O)NCC(=O)N[C@@H](CCCNC(=N)N)C(=O)O)C(C)C [DHLVGR] | 249.4 Å² | 
CCC(C)[C@H](NC(=O)[C@@H](N)CC(=O)O)C(=O)N[C@H](C(=O)NCC(=O)N[C@@H](C)C(=O)N[C@H](C(=O)N[C@@H](CC(C)C)C(=O)N[C@@H](CCCCN)C(=O)O)C(C)C)C(C)C (stereo partly drawn) [DIVGAVLK] | 291.8 Å² and 277.8 Å² | 
N=C(N)NCCC[C@H](NC(=O)[C@H](CCC(=O)O)NC(=O)CNC(=O)[C@@H](N)Cc1ccccc1)C(=O)O [FGER] | 217.1 Å² | 
CCC(C)[C@H](NC(=O)[C@H](CCC(N)=O)NC(=O)CN)C(=O)N[C@H](C(=O)NCC(=O)N[C@@H](CCCNC(=N)N)C(=O)O)C(C)C (stereo partly drawn) [GQIVGR] | 245.5 Å² | 
CCC(C)[C@H](NC(=O)[C@@H](NC(=O)CN)C(C)C)C(=O)N[C@@H](Cc1ccccc1)C(=O)N[C@@H](Cc1ccc(O)cc1)C(=O)N[C@@H](CCC(=O)O)C(=O)N[C@@H](CO)C(=O)N[C@@H](Cc1c[nH]cn1)C(=O)NCC(=O)N[C@@H](CCCCN)C(=O)O (stereo partly drawn) [GVIFYESHGK] | 332.9 Å² | 
CC(C)C[C@H](NC(=O)[C@@H](NC(=O)CN)C(C)C)C(=O)N[C@@H](Cc1c[nH]cn1)C(=O)N[C@@H](C)C(=O)N[C@H](C(=O)N[C@@H](CCCCN)C(=O)O)C(C)C [GVLHAVK] | 269.9 Å² | 
